Assays:
Experiment in all cases: relative viability (nuclei count vs DMSO), 5 days (fraction); higher = more cells survive
[1] = compound: C1=CC2=NC=CN=C2C=C1/C=C/3\C(=O)NC(=O)S3 + Nc1ncn([C@H]2C[C@H](O)[C@@H](CO)O2)c(=O)n1 [Decitabine] (partner 2 µM)
Method in brief: (§1)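 Medians of duplicate plates are given as relative viability. That measure is the nuclei count in treated wells divided by the count in vehicle wells. Counts were taken on 4× images of lung cancer cell lines in 1536-well plates, 5 days after pin-tool dosing the day after seeding with one drug alone or a fixed anchor-drug dose plus five library-drug doses (not always all listed) in √10 steps.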

[2] = compound: CCN1CCN(c2ccc(Nc3cc(N(C)C(=O)Nc4c(Cl)c(OC)cc(OC)c4Cl)ncn3)cc2)CC1 [BGJ398] + C[C@]1(O)C[C@@H](c2nc(-c3ccc4ccc(-c5ccccc5)nc4c3)c3c(N)nccn32)C1 [Linsitinib] (partner 1 µM)
Method in brief: as §1

[3] = compound: CCN1CCN(c2ccc(Nc3cc(N(C)C(=O)Nc4c(Cl)c(OC)cc(OC)c4Cl)ncn3)cc2)CC1 [BGJ398] + O=C(CCCCCCC(=O)Nc1ccccc1)NO [Vorinostat] (partner 1 µM)
Method in brief: as §1

[4] = compound: CCN1CCN(c2ccc(Nc3cc(N(C)C(=O)Nc4c(Cl)c(OC)cc(OC)c4Cl)ncn3)cc2)CC1 [BGJ398] + O=C(c1cc(Cc2n[nH]c(=O)c3ccccc23)ccc1F)N1CCN(C(=O)C2CC2)CC1 [Olaparib] (partner 8 µM)
Method in brief: as §1

UMC-11
relative viability ([1]; first compound 0.02 µM): 0.695 | relative viability ([1]; first compound 0.06325 µM): 0.665 | relative viability ([1]; first compound 0.2 µM): 0.681 | relative viability ([1]; first compound 0.6325 µM): 0.531 | relative viability ([1]; first compound 2 µM): 0.69 | relative viability ([2]; first compound 0.01 µM): 1.01 | relative viability ([2]; first compound 0.03162 µM): 0.982 | relative viability ([2]; first compound 0.1 µM): 1.04 | relative viability ([2]; first compound 0.3162 µM): 1.03 | relative viability ([2]; first compound 1 µM): 1.01 | relative viability ([3]; first compound 0.01 µM): 0.363 | relative viability ([3]; first compound 0.03162 µM): 0.407 | relative viability ([3]; first compound 0.1 µM): 0.376 | relative viability ([3]; first compound 0.3162 µM): 0.376 | relative viability ([3]; first compound 1 µM): 0.382 | relative viability ([4]; first compound 0.01 µM): 0.316 | relative viability ([4]; first compound 0.03162 µM): 0.447 | relative viability ([4]; first compound 0.1 µM): 0.376 | relative viability ([4]; first compound 0.3162 µM): 0.367 | relative viability ([4]; first compound 1 µM): 0.342
